Source: ChEMBL document CHEMBL1201862, “PubChem BioAssay data set” (2004)
Activity calls are given as the source filed them.

How the values were obtained:
[1] = target: T1, E3 ubiquitin-protein ligase XIAP (Homo sapiens, UniProt P98170); assay: small molecules displacing peptide from XIAP – biochemical, IAP family, fluorescence polarization (AID 1018); type: functional
[2] = target: T1, E3 ubiquitin-protein ligase XIAP; assay: Counter Screen using XIAP-Bir3 for Chemical Antagonists of Bir1/2 domains of IAP-family anti-apoptotic proteins. [Related pubchem assays (depositor defined):AID1018, AID1449, AID1514, AID1638, AID1749, AID1750, AID488957, AID488963]
Nonstructural protein 1 = Nonstructural protein 1 (Influenza A virus, UniProt Q194T2); type: functional, Influenza A virus (A/California/07/2009(H1N1))
H9c2 = assay: cells; type: functional, cell-based; settings: Rattus norvegicus, H9c2, Myocardium;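 note: confirmatory concentration-response retest of ultra-high-throughput screening hits for modulation of myocardial damage; cell death induced by hydrogen peroxide oxidative stress; compound pretreatment for 60 min then peroxide exposure for 2 h; potency is for protecting the cells against peroxide damage rather than for killing them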
Cytochrome P450 2C19 = Cytochrome P450 2C19 (Homo sapiens, UniProt P33261); assay: Cytochrome panel assay with activity outcomes. Panel member name: p450-cyp2c19 Compounds with AC50 equal or less than 10 uM are considered active; type: functional
Cytochrome P450 2D6 = Cytochrome P450 2D6 (Homo sapiens, UniProt P10635);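 note: CYP2D6 member of a cytochrome P450 panel assay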
Cytochrome P450 3A4 = Cytochrome P450 3A4 (Homo sapiens, UniProt P08684);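 note: CYP3A4 tested as one member of a cytochrome P450 panel screen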
Cytochrome P450 2C9 = Cytochrome P450 2C9 (Homo sapiens, UniProt P11712)
HEK293 [3] = assay: cells; type: functional, cell-based; settings: Homo sapiens
[4] = target: Disintegrin and metalloproteinase domain-containing protein 17 (Homo sapiens, UniProt P78536); assay: inhibition of ADAM17 substrate cleavage – biochemical, quenched FRET substrate, counter-screen for ADAM10 exosite inhibitor project, dose response (AID 743253)
HEK293 [5] = assay: cells; type: functional, cell-based; settings: Homo sapiens; remark: listed apart in the source
[6] = target: Nucleotide-binding oligomerization domain-containing protein 2 (Homo sapiens, UniProt Q9HC29); assay: inhibition of NOD2-driven NF-kB reporter – cell-based, luminescence, uHTS, HEK293 (AID 1566); type: functional
[7] = Luminescence Cell-Based Dose Retest to Confirm Inhibitors of Cancer Stem Cells. [Related pubchem assays (depositor defined):AID2717, AID2721]; type: functional; settings: Homo sapiens
Streptokinase A = target: T2, Streptokinase A (Streptococcus pyogenes serotype M1, UniProt P10520); assay: viability-normalized secreted streptokinase activity reduction – plasminogen activation absorbance, OD405, dose response (AID 1914); type: functional, Streptococcus pyogenes M1 GAS;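 note: secreted streptokinase activity via plasminogen activation per viability signal from cell pellet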
T2 sequence (P10520 whole entry): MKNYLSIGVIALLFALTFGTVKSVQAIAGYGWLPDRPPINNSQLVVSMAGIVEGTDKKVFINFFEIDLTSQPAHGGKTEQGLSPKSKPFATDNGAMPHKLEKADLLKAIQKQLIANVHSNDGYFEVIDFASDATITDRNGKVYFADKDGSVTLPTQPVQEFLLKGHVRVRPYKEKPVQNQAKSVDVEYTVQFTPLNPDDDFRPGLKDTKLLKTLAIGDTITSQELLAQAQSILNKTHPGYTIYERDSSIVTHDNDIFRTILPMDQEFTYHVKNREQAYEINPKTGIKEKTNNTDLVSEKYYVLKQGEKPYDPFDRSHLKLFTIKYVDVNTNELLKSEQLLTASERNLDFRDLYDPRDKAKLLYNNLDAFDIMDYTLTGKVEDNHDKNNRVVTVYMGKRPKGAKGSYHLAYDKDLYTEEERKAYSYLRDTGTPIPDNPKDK

HEK293 [8] = assay: cells; type: functional, cell-based; settings: Homo sapiens; remark: listed apart in the source
[9] = test system: Streptococcus sp. 'group A'; assay: Streptococcus pyogenes SK(-)GAS viability under kanamycin – luminescence, BacTiterGlo, confirmation, counter-screen for streptokinase expression inhibitor project, dose response (AID 1900); type: functional, organism-based
Streptococcus = assay: GAS UMAA2166 growth inhibition – luminescence, BacTiterGlo, counter-screen for streptokinase expression inhibitor project, dose response (AID 1915); type: functional, organism-based;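 note: potency for reduction of bacterial viability or growth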
HEK293 [10] = assay: NOD2 signaling inhibitors in MDP-stimulated cells, cell-based, uHTS, luminescence (AID 2001); type: functional; settings: Homo sapiens
HEK293 [11] = assay: inhibition of NOD1-driven NF-kB reporter – cell-based, luminescence, uHTS, primary screen (AID 1578); type: functional; settings: Homo sapiens

T1 sequence (P98170 whole entry): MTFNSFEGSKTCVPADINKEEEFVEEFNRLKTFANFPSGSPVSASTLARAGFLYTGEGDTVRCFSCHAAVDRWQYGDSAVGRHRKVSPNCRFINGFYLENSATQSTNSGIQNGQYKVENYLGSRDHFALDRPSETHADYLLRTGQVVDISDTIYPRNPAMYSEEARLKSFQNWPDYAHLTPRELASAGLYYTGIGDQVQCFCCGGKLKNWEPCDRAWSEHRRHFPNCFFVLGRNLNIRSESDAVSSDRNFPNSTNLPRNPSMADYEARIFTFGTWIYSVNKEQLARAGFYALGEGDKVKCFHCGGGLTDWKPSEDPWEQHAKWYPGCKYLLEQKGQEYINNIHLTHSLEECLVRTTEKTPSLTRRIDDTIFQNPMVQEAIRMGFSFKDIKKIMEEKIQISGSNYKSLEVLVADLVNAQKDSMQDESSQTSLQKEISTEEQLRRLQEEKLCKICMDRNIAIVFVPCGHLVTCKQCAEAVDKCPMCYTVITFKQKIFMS
Cytochrome P450 3A4, sequence (P08684 whole entry): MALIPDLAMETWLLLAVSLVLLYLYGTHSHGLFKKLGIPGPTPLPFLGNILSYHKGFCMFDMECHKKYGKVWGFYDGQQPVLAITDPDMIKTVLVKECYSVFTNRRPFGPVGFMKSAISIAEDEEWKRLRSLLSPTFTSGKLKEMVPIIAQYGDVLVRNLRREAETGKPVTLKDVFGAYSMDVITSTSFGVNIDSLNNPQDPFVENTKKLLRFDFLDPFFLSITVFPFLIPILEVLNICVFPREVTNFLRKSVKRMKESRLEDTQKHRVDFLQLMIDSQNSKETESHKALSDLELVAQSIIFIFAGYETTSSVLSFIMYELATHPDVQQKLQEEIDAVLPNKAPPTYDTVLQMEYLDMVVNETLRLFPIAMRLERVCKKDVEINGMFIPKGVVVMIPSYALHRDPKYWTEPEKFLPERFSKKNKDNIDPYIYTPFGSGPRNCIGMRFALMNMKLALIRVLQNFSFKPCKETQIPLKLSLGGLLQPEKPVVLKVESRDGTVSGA
Cytochrome P450 2D6, sequence (P10635 whole entry): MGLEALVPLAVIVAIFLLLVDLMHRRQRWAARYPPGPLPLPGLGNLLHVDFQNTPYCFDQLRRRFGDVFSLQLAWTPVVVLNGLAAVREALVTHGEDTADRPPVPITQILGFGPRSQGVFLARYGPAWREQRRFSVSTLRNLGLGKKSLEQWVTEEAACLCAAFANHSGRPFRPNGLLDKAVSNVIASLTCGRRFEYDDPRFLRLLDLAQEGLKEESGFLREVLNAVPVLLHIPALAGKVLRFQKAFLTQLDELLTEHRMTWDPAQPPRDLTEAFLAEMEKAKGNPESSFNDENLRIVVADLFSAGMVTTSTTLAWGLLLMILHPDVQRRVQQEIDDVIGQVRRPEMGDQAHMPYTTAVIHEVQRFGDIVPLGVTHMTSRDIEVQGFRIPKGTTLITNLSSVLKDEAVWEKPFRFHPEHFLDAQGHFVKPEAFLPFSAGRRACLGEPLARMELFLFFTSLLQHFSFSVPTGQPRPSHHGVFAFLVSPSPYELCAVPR
Disintegrin and metalloproteinase domain-containing protein 17, sequence (P78536 whole entry, the tested form may be a part): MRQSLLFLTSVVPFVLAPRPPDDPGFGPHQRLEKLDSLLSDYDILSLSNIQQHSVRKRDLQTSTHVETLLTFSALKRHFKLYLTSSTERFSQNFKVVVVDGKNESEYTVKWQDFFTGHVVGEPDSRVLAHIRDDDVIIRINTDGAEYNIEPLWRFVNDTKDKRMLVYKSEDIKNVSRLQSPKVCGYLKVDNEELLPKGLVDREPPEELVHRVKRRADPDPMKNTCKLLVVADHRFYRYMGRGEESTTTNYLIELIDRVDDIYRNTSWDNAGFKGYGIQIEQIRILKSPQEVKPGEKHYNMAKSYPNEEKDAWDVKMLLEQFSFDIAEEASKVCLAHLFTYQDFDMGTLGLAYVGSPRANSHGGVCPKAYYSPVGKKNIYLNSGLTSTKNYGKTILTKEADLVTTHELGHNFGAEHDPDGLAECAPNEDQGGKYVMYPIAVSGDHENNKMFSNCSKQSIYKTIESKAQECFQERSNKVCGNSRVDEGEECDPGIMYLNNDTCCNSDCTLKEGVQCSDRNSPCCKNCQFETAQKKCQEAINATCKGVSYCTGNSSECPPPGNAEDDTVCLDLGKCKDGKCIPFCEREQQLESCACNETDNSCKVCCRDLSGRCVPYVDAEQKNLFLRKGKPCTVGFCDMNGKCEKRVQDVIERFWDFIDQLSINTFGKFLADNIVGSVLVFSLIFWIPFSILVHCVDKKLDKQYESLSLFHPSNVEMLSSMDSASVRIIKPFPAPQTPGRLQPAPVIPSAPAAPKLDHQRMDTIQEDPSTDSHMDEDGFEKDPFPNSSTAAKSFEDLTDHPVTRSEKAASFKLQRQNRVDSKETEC
Cytochrome P450 2C9, sequence (P11712 whole entry): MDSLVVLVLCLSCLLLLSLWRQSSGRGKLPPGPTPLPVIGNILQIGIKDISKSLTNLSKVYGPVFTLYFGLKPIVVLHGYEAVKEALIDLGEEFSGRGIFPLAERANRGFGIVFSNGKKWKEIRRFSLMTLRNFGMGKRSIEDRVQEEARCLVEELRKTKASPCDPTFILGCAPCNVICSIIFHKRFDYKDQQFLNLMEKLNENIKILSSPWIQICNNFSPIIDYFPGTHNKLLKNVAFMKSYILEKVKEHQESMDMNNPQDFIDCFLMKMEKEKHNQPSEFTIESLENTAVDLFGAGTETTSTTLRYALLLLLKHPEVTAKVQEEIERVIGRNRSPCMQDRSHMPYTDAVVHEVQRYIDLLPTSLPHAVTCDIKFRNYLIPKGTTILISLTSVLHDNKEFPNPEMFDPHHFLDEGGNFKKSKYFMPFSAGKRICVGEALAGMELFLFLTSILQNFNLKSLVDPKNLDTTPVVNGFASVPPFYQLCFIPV
Nonstructural protein 1, sequence (Q194T2 whole entry): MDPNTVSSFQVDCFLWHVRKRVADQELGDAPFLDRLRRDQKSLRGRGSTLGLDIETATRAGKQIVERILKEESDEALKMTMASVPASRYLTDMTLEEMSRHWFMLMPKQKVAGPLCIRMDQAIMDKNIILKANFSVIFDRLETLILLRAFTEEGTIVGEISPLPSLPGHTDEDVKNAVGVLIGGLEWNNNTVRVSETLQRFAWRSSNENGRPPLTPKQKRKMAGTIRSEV
Nucleotide-binding oligomerization domain-containing protein 2, sequence (Q9HC29 whole entry, the tested form may be a part): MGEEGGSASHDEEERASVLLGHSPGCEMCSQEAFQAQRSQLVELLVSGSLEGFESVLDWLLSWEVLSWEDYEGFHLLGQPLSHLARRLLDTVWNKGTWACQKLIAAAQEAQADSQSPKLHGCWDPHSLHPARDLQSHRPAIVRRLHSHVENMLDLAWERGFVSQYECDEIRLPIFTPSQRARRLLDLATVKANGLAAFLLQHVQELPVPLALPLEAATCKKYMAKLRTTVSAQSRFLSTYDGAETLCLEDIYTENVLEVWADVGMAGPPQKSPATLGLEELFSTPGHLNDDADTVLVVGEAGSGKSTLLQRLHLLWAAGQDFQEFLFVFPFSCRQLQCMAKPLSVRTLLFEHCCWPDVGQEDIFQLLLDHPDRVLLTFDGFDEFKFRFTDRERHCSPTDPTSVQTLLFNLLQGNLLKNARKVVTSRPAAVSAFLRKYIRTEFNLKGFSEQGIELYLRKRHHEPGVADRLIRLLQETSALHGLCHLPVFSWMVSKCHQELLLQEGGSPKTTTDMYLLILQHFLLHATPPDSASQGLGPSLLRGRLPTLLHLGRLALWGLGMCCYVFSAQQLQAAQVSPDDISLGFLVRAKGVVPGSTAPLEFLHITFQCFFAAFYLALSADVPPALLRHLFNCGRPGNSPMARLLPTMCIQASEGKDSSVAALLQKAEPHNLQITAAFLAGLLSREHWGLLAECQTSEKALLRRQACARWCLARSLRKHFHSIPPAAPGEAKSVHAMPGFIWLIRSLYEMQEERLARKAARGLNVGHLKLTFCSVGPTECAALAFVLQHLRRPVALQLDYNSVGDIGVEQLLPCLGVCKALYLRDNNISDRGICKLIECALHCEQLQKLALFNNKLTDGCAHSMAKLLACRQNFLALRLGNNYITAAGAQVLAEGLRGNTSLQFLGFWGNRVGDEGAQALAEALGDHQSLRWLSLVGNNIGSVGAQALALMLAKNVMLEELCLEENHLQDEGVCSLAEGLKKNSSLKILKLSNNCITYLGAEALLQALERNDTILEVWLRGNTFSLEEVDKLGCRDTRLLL
Cytochrome P450 2C19, sequence (P33261 whole entry): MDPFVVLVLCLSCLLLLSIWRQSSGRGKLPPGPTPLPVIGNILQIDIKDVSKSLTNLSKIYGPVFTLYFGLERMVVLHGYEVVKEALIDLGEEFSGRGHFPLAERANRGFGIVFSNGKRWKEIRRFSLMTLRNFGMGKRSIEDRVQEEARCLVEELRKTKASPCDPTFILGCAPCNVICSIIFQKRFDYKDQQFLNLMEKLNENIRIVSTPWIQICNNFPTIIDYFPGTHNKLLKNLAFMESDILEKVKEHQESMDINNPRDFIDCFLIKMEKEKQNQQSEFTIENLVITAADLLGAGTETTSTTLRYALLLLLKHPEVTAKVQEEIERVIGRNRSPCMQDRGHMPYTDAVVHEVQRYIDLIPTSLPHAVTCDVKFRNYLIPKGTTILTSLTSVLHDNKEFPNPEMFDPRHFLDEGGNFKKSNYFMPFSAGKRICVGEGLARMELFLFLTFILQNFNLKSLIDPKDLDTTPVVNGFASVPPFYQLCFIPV

O=C(CN1C(=O)CCC1=O)Nc1nc(-c2ccccn2)cs1
IC50 [1]: > 100 µM (not active) | IC50 [2]: > 100 µM (inactive) | IC50 (Nonstructural protein 1): 4.83 µM (active) | IC50 (H9c2): 33.4 µM (inactive)

O=C(COC(=O)C(Cc1ccccc1)NC(=O)c1ccco1)NC1CC1 (centres undefined)
IC50 [1]: > 100 µM (not active) | IC50 [2]: > 100 µM (inactive)

Cc1ccc(NC(=O)NNC(=O)C2CC(c3cccnc3)=NO2)cc1 (centres undefined)
AC50 (Cytochrome P450 2C19): inconclusive | AC50 (Cytochrome P450 2D6): inconclusive

O=C(c1cccc(F)c1)N1CCC2(CCN(Cc3nccs3)CC2)CC1
AC50 (Cytochrome P450 3A4): inconclusive

CSc1nc2nc3c(c(O)n2n1)CN(Cc1ccccc1)CC3
AC50 (Cytochrome P450 2C9): 15.8 µM (inconclusive) | AC50 (Cytochrome P450 3A4): inconclusive

CCOC(=O)N1CCC(=NNC(=O)c2ccccc2F)CC1
IC50 [1]: > 100 µM (not active) | IC50 [2]: > 100 µM (inactive)

COc1ccc(-c2c[nH]nc2-c2ccc(OCc3ccccc3)cc2O)cc1
IC50 (HEK293 [3]): > 20 µM (inactive) | IC50 [4]: > 69.5 µM (inactive) | IC50 (HEK293 [5]): > 20 µM (inactive) | EC50 [6]: 2.22 µM (active) | AC50 [7]: 6.84 µM (active) | EC50 (Streptokinase A): > 150 µM (inconclusive) | IC50 (HEK293 [8]): 1.84 µM (active) | EC50 [9]: 2.68 µM (active) | EC50 (Streptococcus): 17.7 µM (active) | IC50 (HEK293 [10]): 3.21 µM (active) | EC50 (HEK293 [11]): 12.2 µM (active)
